According to US7413853B2, “Modulation of metabolism of steroids and xenobiotics” (The Salk Institute for Biological Studies, priority 2001, dated 2008):

Key:
[1] = system: rat CYP3A23 gene cellular promoter
Protocol: (§1) The PCR-amplified sequences and target mutagenesis were confirmed by DNA sequencing.
(§2) All compounds were purchased from Sigma.
The above notion would predict: (1) The SXR/PXR response element is essential for the activation of CYP3A genes; and (2) The response elements of SXR and PXR are interchangeable. Therefore, mutagenesis analysis was performed on the promoter of the rat CYP3A23 gene to examine these predictions.

[2] = system: CYP3A11 gene; details: mouse, in vivo
Protocol: The animals were allowed free access to food and water at all times. […] When necessary, mice were treated with a single intraperitoneal injection of DEX (50 mg/kg), PCN (40 mg/kg), or CTZ (50 mg/kg).
To examine the drug response of the endogenous liver CYP3A11 gene, animals were treated with single dose of compounds 24 h before sacrifice, and the CYP3A11 gene expression was evaluated by Northern blot analysis on liver total RNA. […] To detect specific transcripts, [^32P]-cDNA probes labeled by Random Primer Labeling Kit (Boringher) were hybridized to the membranes. The probe used to detect transgene contains both the SXR cDNA and the SV40 sequences. […] The filters were subsequently stripped and rehybridized with a murine glyceraldehyde-3-phosphate dehydrogenase (GAPDH) cDNA probe for RNA loading normalization.
Tissues were harvested 24 h later and subjected to Northern blot analysis. Membranes were probed with CYP3A11 cDNA probe, and were subsequently stripped and re-probed with GAPDH and transgene specific probes.

[3] = system: human CYP3A4 gene cellular promoter; details: hepatocytes
Description: as §1, §2

[4] = target: T1, PXR (Mus musculus, UniProt O54915); details: tk-UGT1A6/DR-3-Luc, CV-1 cells
T1 sequence (O54915 1-431): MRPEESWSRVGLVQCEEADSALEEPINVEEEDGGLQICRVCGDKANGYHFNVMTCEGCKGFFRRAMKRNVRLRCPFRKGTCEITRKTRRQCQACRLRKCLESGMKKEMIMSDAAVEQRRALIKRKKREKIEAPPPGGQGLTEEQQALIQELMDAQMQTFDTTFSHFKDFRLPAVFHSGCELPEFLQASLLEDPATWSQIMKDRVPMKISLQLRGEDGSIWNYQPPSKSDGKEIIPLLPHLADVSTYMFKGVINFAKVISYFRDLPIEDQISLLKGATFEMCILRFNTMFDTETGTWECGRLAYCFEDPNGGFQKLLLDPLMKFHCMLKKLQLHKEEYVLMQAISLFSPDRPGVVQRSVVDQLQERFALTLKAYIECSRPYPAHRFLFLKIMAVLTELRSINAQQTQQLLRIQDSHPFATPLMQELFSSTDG
Description: (§3) The reporter gene comprises a thymadine kinase (TK) linked to UGT1A6/DR-3 linked to a luciferace (LUC).
(§4) In an exemplary assay, a luciferase reporter gene containing the UGT1A6/DR-3 upstream of a minimal thymidine kinase (tk) promoter was constructed and transfected into monkey kidney CV-1 cells together with expression vectors for SXR, PXR, or CAR.
(§5) In FIG. 2, the tk-UGT1A6/DR3-Luc construct comprises a UGT inverted or direct repeat and/or a nuclear receptor binding site such that activation of the response element results in transcription of UGT. […] The response element can also comprise an inverse repeat of a suitable half site separated by a 6 nucleotide spacer, or an inverse repeat of a variant thereof, separated by a 6 nucleotide spacer.

[5] = system: SXR; assay: Activation of SXR in transfection-based assays
Protocol: To characterize its response properties, a large variety of steroids, including intermediate and major products of known steroid biosynthetic pathways were tested.

[6] = target: T1, PXR; assay: Activation of mouse receptor PXR by the panel of compounds
[7] = target: T2, SXR (Homo sapiens, UniProt O75469)
T2 sequence (O75469 1-434): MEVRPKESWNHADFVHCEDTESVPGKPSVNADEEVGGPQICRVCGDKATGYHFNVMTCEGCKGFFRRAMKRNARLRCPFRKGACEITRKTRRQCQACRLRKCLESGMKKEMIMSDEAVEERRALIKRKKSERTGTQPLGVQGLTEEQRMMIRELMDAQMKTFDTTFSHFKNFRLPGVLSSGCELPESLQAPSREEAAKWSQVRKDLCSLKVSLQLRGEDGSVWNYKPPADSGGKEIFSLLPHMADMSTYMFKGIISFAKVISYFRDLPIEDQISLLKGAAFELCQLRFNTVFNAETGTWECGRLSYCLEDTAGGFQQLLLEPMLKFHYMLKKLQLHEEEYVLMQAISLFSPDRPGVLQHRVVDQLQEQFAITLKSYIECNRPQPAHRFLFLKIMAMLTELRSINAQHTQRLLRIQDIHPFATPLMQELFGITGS
Description: as §3, §4, §5

| Compound | PXR and/or SXR-mediated activation of mutated CYP3A23 promoter [1] | activation of CYP3A23 cellular promoter reporter [1] | inducibility of CYP3A23 promoter with DR-3 replaced by IR-6 [1] | induction of CYP3A23 cellular promoter reporter [1] | induction of liver CYP3A11 expression [2] | activation of CYP3A4 cellular promoter reporter [3] | PXR-mediated UGT activation [4] | activation of SXR by compounds known to induce CYP3A4 [5] | SXR activation of DR-3, DR-4 and DR-5 elements ([5]; series of transfections) | activation of SXR ([5]; transfection-based assays, steroids tested) | activation of PXR [6] | activation of the UGT reporter by SXR [7] |
| --- | --- | --- | --- | --- | --- | --- | --- | --- | --- | --- | --- | --- |
| CC(=O)[C@H]1[C@H](C#N)C[C@H]2[C@@H]3CC=C4C[C@@H](O)CC[C@]4(C)[C@H]3CC[C@@]21C [PCN, pregnenolone-16-carbonitrile] | abolished | most potent and efficacious tested activators | successfully rescue the inducibility | remained unchanged | equally efficacious | can be activated | activation was seen | weak activator | among the best activators | activated | preferentially activated |  |
| Clc1ccccc1C(c1ccccc1)(c1ccccc1)n1ccnc1 [CTZ, clotrimazole] | abolished |  | successfully rescue the inducibility | significant induction |  |  | activation was seen |  |  |  |  | Significant activation |
